Laboratory results from patent US20120010262A1, “CRYSTALLINE POLYMORPHIC FORMS OF AN ANTIDIABETIC COMPOUND” (priority 2009, published 2012).

Experiment: Solid-form stability of crystalline anhydrate Form II (conversion to Anhydrate III)
Format: physicochemical
Conditions: converts to crystalline Anhydrate III when heated to 160° C. for 1 hour or in solutions of ethanol, isoamyl alcohol and isopropyl acetate
Protocol: Anhydrate Form II is prepared from a solution of the crystalline hydrate form at a concentration of >100 mg/mL in acetonitrile. The solution is sonicated for approximately 5 minutes to induce crystallization. Anhydrate H is metastable. It converts to crystalline Anhydrate III when heated to 160° C. for 1 hour or in solutions of ethanol, isoamyl alcohol and isopropyl acetate. The X Ray Powder Diffraction peaks are shown below in Table 4.

With `CCC[C@H](c1ccc(C(=O)NCCC(=O)O)cc1)[C@H](c1ccc(Cl)cc1)c1c[nH]c2c(F)cc(C)cc12` [Anhydrate H, N-(4-{(1S)-1-[(R)-(4-chlorophenyl)(7-fluoro-5-methyl-1H-indol-3-yl)methyl]butyl}benzoyl)-β-alanine] the “physical stability of the crystalline form” value was “metastable”.
